According to the supplement of paper PMC11451515:

Experiments:
Conditions in all cases: 48 h
SEM cells [1] = assay: AUC of viability dose-response curve (% viability x log10 dose units); higher = less sensitive
Method in brief: (§1)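 Area under the curve was integrated by trapezoidal rule from a log-logistic fit of normalised viability, with curves exceeding full viability scaled and quality-control failures removed. The fit had four parameters over log10 doses. Viability came from CellTiter-Glo One luminescence, normalised per plate to DMSO and cell-free wells, after leukemia cells adapted to each medium (500 or 1000 cells/well, 1536-well plates) were exposed to library compounds in DMSO for 48 h at 37°C. The 11 threefold doses ran from 47 μM to 0.79 nM.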

NOMO1 [2] = assay: as above
Method in brief: as §1

P12-Ichikawa [3] = assay: as above
Method in brief: as §1

SEM cells [4] = assay: cell viability relative to DMSO control; higher = less cytotoxic
Method in brief: (§2)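 Before seeding, each leukemia line was adapted for at least four passages in each medium. NOMO1 or SEM cells (500 cells/well) and P12-Ichikawa cells (1000 cells/well) went into 1536-well plates at 5 μl, then received library compounds in DMSO by pin dosing across 11 threefold concentrations, 47 μM to 0.79 nM. Readout was CellTiter-Glo One luminescence after 48 h at 37°C, and viability is given as a per-plate percentage of DMSO wells, with cell-free wells as background.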

NOMO1 [5] = assay: as above
Method in brief: as §2

P12-Ichikawa [6] = assay: as above
Method in brief: as §2

C[C@]12CC(=O)[C@H]3[C@@H](CC\C4=C\C(=O)\C=C/[C@]34C)[C@@H]1CC[C@]2(O)C(=O)CO
AUC of viability dose-response curve
Conditions | NOMO1 [2] | P12-Ichikawa [3] | SEM cells [1]
HPLM + 10% dialyzed FBS | 472 | 458 | 470
RPMI 5 mM glucose + 10% FBS | 461 | 461 | 457
RPMI 5 mM glucose + 10% dialyzed FBS | 471 | 438 | 469

N#Cc1ccc(C(c2ccc(C#N)cc2)n2cncn2)cc1
AUC of viability dose-response curve
Conditions | HPLM + 10% dialyzed FBS | RPMI 5 mM glucose + 10% FBS | RPMI 5 mM glucose + 10% dialyzed FBS
NOMO1 [2] | 442 | 450 | 466
P12-Ichikawa [3] | 461 | 460 | 451

SEM cells [4], HPLM + 10% dialyzed FBS
Conditions | cell viability [%]
0.000781 µM | 121
0.00234 µM | 118
0.00702 µM | 131
0.0211 µM | 130
0.0632 µM | 40.1
0.19 µM | 129
0.569 µM | 140
1.71 µM | 131
5.12 µM | 54.4
15.4 µM | 110
46.1 µM | 111

Nc1nc(Cl)nc2c1ncn2[C@@H]1O[C@H](CO)[C@@H](O)[C@@H]1F
AUC of viability dose-response curve
Conditions | HPLM + 10% dialyzed FBS | RPMI 5 mM glucose + 10% FBS | RPMI 5 mM glucose + 10% dialyzed FBS
P12-Ichikawa [3] | 83.1 | 75.7 | 115
SEM cells [1] | 68 | 55.4 | 55.4

cell viability [%]
Conditions | NOMO1 [5] | P12-Ichikawa [6] | SEM cells [4]
HPLM + 10% dialyzed FBS, 0.000781 µM | 41.7 | 18.2 | 14.5
HPLM + 10% dialyzed FBS, 0.00234 µM | 70.8 | 55.1 | 17
HPLM + 10% dialyzed FBS, 0.00702 µM | 43.4 | 15.7 | 16.4
HPLM + 10% dialyzed FBS, 0.0211 µM | 33.3 | 16.3 | 15.7
HPLM + 10% dialyzed FBS, 0.0632 µM | 26.6 | 18.8 | 18
HPLM + 10% dialyzed FBS, 0.19 µM | 18.2 | 15.4 | 16.5
HPLM + 10% dialyzed FBS, 0.569 µM | 24.7 | 15.2 | 15.1
HPLM + 10% dialyzed FBS, 1.71 µM | 23.9 | 11.8 | 16.1
HPLM + 10% dialyzed FBS, 5.12 µM | 21.2 | 13.5 | 10.2
HPLM + 10% dialyzed FBS, 15.4 µM | 18.1 | 10.6 | 8.98
HPLM + 10% dialyzed FBS, 46.1 µM | 18.6 | 8.95 | 4.93
RPMI 5 mM glucose + 10% FBS, 0.000781 µM | 77.2 | 32.2 | 15.3
RPMI 5 mM glucose + 10% FBS, 0.00234 µM | 131 | 50 | 20
RPMI 5 mM glucose + 10% FBS, 0.00702 µM | 49 | 15.6 | 18.8
RPMI 5 mM glucose + 10% FBS, 0.0211 µM | 27.2 | 14.8 | 16.8
RPMI 5 mM glucose + 10% FBS, 0.0632 µM | 20 | 16.3 | 14.3
RPMI 5 mM glucose + 10% FBS, 0.19 µM | 21.7 | 13.6 | 10.8
RPMI 5 mM glucose + 10% FBS, 0.569 µM | 16.9 | 10.6 | 9.77
RPMI 5 mM glucose + 10% FBS, 1.71 µM | 16.7 | 9.04 | 9.03
RPMI 5 mM glucose + 10% FBS, 5.12 µM | 18.4 | 8.02 | 5.46
RPMI 5 mM glucose + 10% FBS, 15.4 µM | 16 | 9.03 | 3.69
RPMI 5 mM glucose + 10% FBS, 46.1 µM | 13.5 | 5.68 | 2.88
RPMI 5 mM glucose + 10% dialyzed FBS, 0.000781 µM | 38.9 | 28.4 | 12.6
RPMI 5 mM glucose + 10% dialyzed FBS, 0.00234 µM | 63.2 | 37.2 | 14.1
RPMI 5 mM glucose + 10% dialyzed FBS, 0.00702 µM | 29.8 | 24.4 | 15.2
RPMI 5 mM glucose + 10% dialyzed FBS, 0.0211 µM | 25.7 | 23.5 | 16.5
RPMI 5 mM glucose + 10% dialyzed FBS, 0.0632 µM | 23 | 24.7 | 14
RPMI 5 mM glucose + 10% dialyzed FBS, 0.19 µM | 23.6 | 24.6 | 11.9
RPMI 5 mM glucose + 10% dialyzed FBS, 0.569 µM | 19.9 | 21.2 | 10.8
RPMI 5 mM glucose + 10% dialyzed FBS, 1.71 µM | 16.4 | 24.3 | 10.3
RPMI 5 mM glucose + 10% dialyzed FBS, 5.12 µM | 14.2 | 19 | 8.13
RPMI 5 mM glucose + 10% dialyzed FBS, 15.4 µM | 19.7 | 20.3 | 8.34
RPMI 5 mM glucose + 10% dialyzed FBS, 46.1 µM | 17.1 | 17.5 | 4.01

O=C(OCC#CCSc1nnc(-c2cccc3ccccc23)o1)c1cc2ccccc2s1
AUC of viability dose-response curve
Conditions | HPLM + 10% dialyzed FBS | RPMI 5 mM glucose + 10% FBS | RPMI 5 mM glucose + 10% dialyzed FBS
NOMO1 [2] | 431 | 443 | 455
P12-Ichikawa [3] | 451 | 444 | 468

SEM cells [4], HPLM + 10% dialyzed FBS
Conditions | cell viability [%]
0.000781 µM | 119
0.00234 µM | 122
0.00702 µM | 121
0.0211 µM | 124
0.0632 µM | 42.3
0.19 µM | 132
0.569 µM | 130
1.71 µM | 115
5.12 µM | 71.7
15.4 µM | 128
46.1 µM | 113

CC(=O)NCC(=O)N1[C@@H]2CC[C@H]1c1ccc(Nc3ncc(C(F)(F)F)c(NC4CCC4)n3)cc12
AUC of viability dose-response curve
Conditions | NOMO1 [2] | P12-Ichikawa [3] | SEM cells [1]
HPLM + 10% dialyzed FBS | 358 | 258 | 247
RPMI 5 mM glucose + 10% FBS | 344 | 268 | 227
RPMI 5 mM glucose + 10% dialyzed FBS | 336 | 290 | 227

N#C/N=C(\NCCCCCCOc1ccc(Cl)cc1)Nc1ccncc1
SEM cells [1]
Conditions | AUC of viability dose-response curve
HPLM + 10% dialyzed FBS | 48.4
RPMI 5 mM glucose + 10% FBS | 34.6
RPMI 5 mM glucose + 10% dialyzed FBS | 38

cell viability [%]
Conditions | NOMO1 [5] | P12-Ichikawa [6] | SEM cells [4]
HPLM + 10% dialyzed FBS, 0.000781 µM | 49.3 | 92.5 | 18.5
HPLM + 10% dialyzed FBS, 0.00234 µM | 47.6 | 30.8 | 14.6
HPLM + 10% dialyzed FBS, 0.00702 µM | 19.9 | 7.9 | 11.7
HPLM + 10% dialyzed FBS, 0.0211 µM | 15.5 | 7.51 | 11.6
HPLM + 10% dialyzed FBS, 0.0632 µM | 12.6 | 7.45 | 10.7
HPLM + 10% dialyzed FBS, 0.19 µM | 11.9 | 6.55 | 9.6
HPLM + 10% dialyzed FBS, 0.569 µM | 9.75 | 6.06 | 9.68
HPLM + 10% dialyzed FBS, 1.71 µM | 9.76 | 4.77 | 8.04
HPLM + 10% dialyzed FBS, 5.12 µM | 9.75 | 5.75 | 7.4
HPLM + 10% dialyzed FBS, 15.4 µM | 8.47 | 5.32 | 6.52
HPLM + 10% dialyzed FBS, 46.1 µM | 6.05 | 2.54 | 4.48
RPMI 5 mM glucose + 10% FBS, 0.000781 µM | 61 | 101 | 11
RPMI 5 mM glucose + 10% FBS, 0.00234 µM | 41.9 | 66.3 | 12.1
RPMI 5 mM glucose + 10% FBS, 0.00702 µM | 22 | 8.62 | 9.46
RPMI 5 mM glucose + 10% FBS, 0.0211 µM | 19.2 | 9.03 | 9.27
RPMI 5 mM glucose + 10% FBS, 0.0632 µM | 15.7 | 8.69 | 8.63
RPMI 5 mM glucose + 10% FBS, 0.19 µM | 9.97 | 8.93 | 8.09
RPMI 5 mM glucose + 10% FBS, 0.569 µM | 11.4 | 8.18 | 6.61
RPMI 5 mM glucose + 10% FBS, 1.71 µM | 8.82 | 6.73 | 4.33
RPMI 5 mM glucose + 10% FBS, 5.12 µM | 9.25 | 5.76 | 4.15
RPMI 5 mM glucose + 10% FBS, 15.4 µM | 8.91 | 5.53 | 3.83
RPMI 5 mM glucose + 10% FBS, 46.1 µM | 6.02 | 3.94 | 1.91
RPMI 5 mM glucose + 10% dialyzed FBS, 0.000781 µM | 81.6 | 117 | 15
RPMI 5 mM glucose + 10% dialyzed FBS, 0.00234 µM | 58.1 | 45.9 | 11
RPMI 5 mM glucose + 10% dialyzed FBS, 0.00702 µM | 26.1 | 8.98 | 9.5
RPMI 5 mM glucose + 10% dialyzed FBS, 0.0211 µM | 21 | 8.5 | 8.99
RPMI 5 mM glucose + 10% dialyzed FBS, 0.0632 µM | 12.5 | 8.43 | 8.27
RPMI 5 mM glucose + 10% dialyzed FBS, 0.19 µM | 12.2 | 8.45 | 8.14
RPMI 5 mM glucose + 10% dialyzed FBS, 0.569 µM | 9.8 | 8.57 | 7.35
RPMI 5 mM glucose + 10% dialyzed FBS, 1.71 µM | 8.26 | 6.65 | 6.51
RPMI 5 mM glucose + 10% dialyzed FBS, 5.12 µM | 7.27 | 6.26 | 5.93
RPMI 5 mM glucose + 10% dialyzed FBS, 15.4 µM | 6.87 | 5.72 | 4.36
RPMI 5 mM glucose + 10% dialyzed FBS, 46.1 µM | 5.38 | 2.79 | 2.76
